Measurements taken from patent US9926304B2, “1-(arylmethyl)quinazoline-2,4(1H,3H)-diones as PARP inhibitors and the use thereof” (Impact Therapeutics, Inc., priority 2011, dated 2018).
Counter-ions that a name gives are not always drawn. Like-named read-outs stand apart in the source and are kept apart here.

Tests used:
[1] = system: Human breast cancer cell line T47D; test: Cell based caspase-3 activity assay: potentiation of MMS induced apoptosis; settings: T47D cells, 11.1 μg/ml MMS, 24 hours, intracellular caspase-3 activity, read-out: EC50 (nM), potentiation of the apoptosis inducing activity of MMS
Description: Determination of the synergistic potentiation effect of 1-(3-(4-(pyrimidin-2-yl)piperazine-1-carbonyl)benzyl)quinazoline-2,4(1H,3H)-dione and analogs on MMS induced apoptosis using a cell based caspase-3 activity assay
Human breast cancer cell line T47D was used to determine the potentiation effect of PARP inhibitors on the apoptosis inducing activity of DNA damaging anticancer drugs such as MMS. Intracellular caspase-3 activity was used to measure cell apoptosis. The dose response effect of MMS to induce intracellular caspase activity was carefully titrated and the concentration that only induces a minimal level of caspase activity was used to test the potentiation effect of PARP inhibitors. Briefly, T47D cells were grown in DMEM/F12 cell culture medium (Hyclone) supplemented with 0.2 U/ml insulin (Genview) and 10% FBS (Hyclone). A day before experiment, 20000 of T47D cells were seeded to each well of a 96-well cell culture plate and maintained at 37° C. and 5% CO2 in a cell culture incubator overnight. On the day of experiment, cell culture medium was removed. One hundred and eighty μl of fresh medium containing 11.1 μg/ml MMS was added to each well and followed by 20 μl medium containing 10 folds of the concentrations of experimental drugs or reference compounds (ADZ2281 and ABT-888). The serial dilutions of the compounds to be tested and the reference compounds were made in a 1:3 and 1:10 fashion in DMSO. The 10-fold compound solutions were made by mixing 10 μl DMSO serial dilution solutions with 90 μl fresh growth medium. Twenty four hours later, the cells in the 96-well plates were centrifuged at 1000 g for 5 min and the supernatants were removed. Fifty μl lysis buffer (10 mM Tris, pH7.5, 0.1M NaCl, 1 mM EDTA, 0.01% Triton X-100) was added to each well and the plates were shaked horizontally for 30 min at 4° C. After centrifugation at 1000 g at 4° C. for 10 min, 20 μl of supernatant was transferred from each well to a corresponding well in a 384-well black plate. Twenty μl of buffer (20 mM PIPES, pH7.4, 4 mM EDTA and 0.2% CHAPS) containing 20 μM fluorescent caspase-3 substrate ((Ac-DEVD)2-R110, AnaSpec Cat #60304-5) was added to each well afterwards. The plates were shaked to uniformly mix the wells and incubated at 37° C. for 3 h. The fluorescence intensity was measured using the following wavelength: ex: 496 nm, em: 520 nm using a fluorescence plate reader (Varioskan Flash, Thermo Fisher Scientific). The caspase-3 activity induced by the compounds was expressed as a relative fluorescence unit (RFU). The obtained fluorescence readings were analyzed using a commercial graphic software (GraphPad Prism 5) and plotted against the Log value of the compound concentrations. The EC50 values were obtained by fitting the data points with the equation of Y (fluorescence reading)=minimal fluorescence reading+(maximal fluorescence reading−minimal fluorescence reading)/(1+10^(Log EC50−Log C)), where C is the concentration of the testing compound.
The synergistic potentiation effect of compounds on MMS induced apoptosis in T47D cells is expressed as EC50 values and listed in Table 2.

[2] = system: SW620 human colorectal cancer cells; test: MTT based cell viability assay: potentiation of the growth inhibiting activity of MMS
[3] = Homo sapiens, SW-620, 120 h, read-out: IC50 (nM), potentiation of the growth inhibiting activity of MMS, SW620 cells, 1.7 μg/ml MMS, 5 days (120 hours), MTT

Row | Compound | EC50 ([1]; Homo sapiens, T47D, 24 h) [nM] | IC50 [2, 3] [nM] | EC50 ([1]; hydrochloride) [nM] | IC50 ([2]; read-out: IC50 (nM), potentiation of the growth inhibiting activity of MMS, SW620 cells, 1.7 μg/ml MMS, 5 days (120 hours), MTT, hydrochloride) [nM]
1 | O=C(c1cc(Cn2c(=O)[nH]c(=O)c3c(F)cccc32)ccc1F)N1CCN(C(=O)C2CC2)CC1 [Example 163, 1-(3-(4-(Cyclopropylcarbonyl)piperazine-1-carbonyl)-4-fluorobenzyl)-5-fluoroquinazoline-2,4(1H,3H)-dione] | 42 | 28 | – | –
2 | O=C(c1cccc(Cn2c(=O)[nH]c(=O)c3cccc(F)c32)c1)N1CCN(c2ncccn2)CC1 [Example 218, 8-Fluoro-1-(3-(4-(pyrimidin-2-yl)piperazine-1-carbonyl)benzyl)quinazoline-2,4(1H,3H)-dione] | 37 | 103 | – | –
3 | Cc1ccc2c(c1)c(=O)[nH]c(=O)n2Cc1cccc(C(=O)N2CCN(C(=O)C3CCCC3)CC2)c1 [Example 82, 1-(3-(4-(Cyclopentylcarbonyl)piperazine-1-carbonyl)benzyl)-6-methylquinazoline-2,4(1H,3H)-dione] | 154 | 459 | – | –
4 | O=C(c1ccc(F)c(Cn2c(=O)[nH]c(=O)c3c(F)cccc32)c1)N1CCN(C(=O)c2ccco2)CC1 [Example 184, 5-Fluoro-1-(6-fluoro-3-(4-(furan-2-carbonyl)piperazine-1-carbonyl)benzyl)quinazoline-2,4(1H,3H)-dione] | 18 | 62 | – | –
5 | O=C(c1ccc(Cn2c(=O)[nH]c(=O)c3ccccc32)o1)N1CCN(c2nsc3ccccc23)CC1 [Example 68, 1-((2-(4-(Benzo[d]isothiazol-3-yl)piperazine-1-carbonyl)furan-5-yl)methyl)quinazoline-2,4(1H,3H)-dione] | 635 | 673 | – | –
6 | Cc1ccc2c(c1)c(=O)[nH]c(=O)n2Cc1ccc(F)c(C(=O)N2CCN(C(=O)C3CCCCC3)CC2)c1 [Example 84, 1-(3-(4-(Cyclohexylcarbonyl)piperazine-1-carbonyl)-4-fluorobenzyl)-6-methylquinazoline-2,4(1H,3H)-dione] | 18 | 52 | – | –
7 | O=C(c1ccc(F)c(Cn2c(=O)[nH]c(=O)c3c(Cl)cccc32)c1)N1CCN(c2ncccn2)CC1 [Example 110, 5-Chloro-1-(6-fluoro-3-(4-(pyrimidin-2-yl)piperazine-1-carbonyl)benzyl)quinazoline-2,4(1H,3H)-dione] | 32 | 72 | – | –
8 | O=C(c1cccc(Cn2c(=O)[nH]c3ccccc3c2=O)c1)N1CCN(c2ncccn2)CC1 [Example 228, 3-(3-(4-(Pyrimidin-2-yl)piperazine-1-carbonyl)benzyl)quinazoline-2,4(1H,3H)-dione] | > 10000 | > 10000 | – | –
9 | O=C(c1ccc(F)c(Cn2c(=O)[nH]c(=O)c3c(Cl)cccc32)c1)N1CCN(C(=O)C2CCC2)CC1 [Example 170, 5-Chloro-1-(3-(4-(cyclobutylcarbonyl)piperazine-1-carbonyl)-6-fluorobenzyl)quinazoline-2,4(1H,3H)-dione] | 43 | 120 | – | –
10 | O=C(c1cccc(Cn2c(=O)[nH]c(=O)c3c(F)cccc32)c1)N1CCN(C(=O)C2CCC2)CC1 [Example 165, 1-(3-(4-(Cyclobutylcarbonyl)piperazine-1-carbonyl)benzyl)-5-fluoroquinazoline-2,4(1H,3H)-dione] | 18 | 49 | – | –
11 | CCN1CCN(C(=O)c2cccc(Cn3c(=O)[nH]c(=O)c4ccccc43)c2)CC1 [Example 7, 1-(3-(4-Ethylpiperazine-1-carbonyl)benzyl)quinazoline-2,4(1H,3H)-dione] | 2660 | 5270 | – | –
12 | O=C(c1cc(Cn2c(=O)[nH]c(=O)c3ccccc32)ccc1F)N1CCN(c2ncccn2)CC1 [Example 192, 1-(4-Fluoro-3-(4-(pyrimidin-2-yl)piperazine-1-carbonyl)benzyl)quinazoline-2,4(1H,3H)-dione hydrochloride] | – | – | 3.1 | 79
13 | O=C(c1cc(Cn2c(=O)[nH]c(=O)c3c(F)cccc32)ccc1F)N1CCN(C(=O)C2CCC2)CC1 [Example 166, 1-(3-(4-(Cyclobutylcarbonyl)piperazine-1-carbonyl)-4-fluorobenzyl)-5-fluoroquinazoline-2,4(1H,3H)-dione] | 1.6 | 4 | – | –
14 | O=C(c1ccc(Cl)c(Cn2c(=O)[nH]c(=O)c3ccccc32)c1)N1CCN(c2ccccn2)CC1 [Example 58, 1-(6-Chloro-3-(4-(pyridin-2-yl)piperazine-1-carbonyl)benzyl)quinazoline-2,4(1H,3H)-dione] | 108 | 171 | – | –
15 | O=C(c1ccc(F)c(Cn2c(=O)[nH]c(=O)c3c(F)cccc32)c1)N1CCN(C(=O)C2CCCC2)CC1 [Example 158, 1-(3-(4-(Cyclopentylcarbonyl)piperazine-1-carbonyl)-6-fluorobenzyl)-5-fluoroquinazoline-2,4(1H,3H)-dione] | 8.6 | 7.8 | – | –
16 | O=C(c1ccccc1)N1CCN(C(=O)c2cc(Cn3c(=O)[nH]c(=O)c4cc(F)ccc43)ccc2F)CC1 [Example 181, 1-(3-(4-Benzoylpiperazine-1-carbonyl)-4-fluorobenzyl)-6-fluoroquinazoline-2,4(1H,3H)-dione] | 2.4 | 4.9 | – | –
17 | O=C(c1cccc(Cn2c(=O)[nH]c(=O)c3c(F)cccc32)c1)N1CCN(C(=O)C2CCCCC2)CC1 [Example 129, 1-(3-(4-(Cyclohexylcarbonyl)piperazine-1-carbonyl)benzyl)-5-fluoroquinazoline-2,4(1H,3H)-dione] | 49 | 18 | – | –
18 | O=C(c1ccc(F)c(Cn2c(=O)[nH]c(=O)c3c(Cl)cccc32)c1)N1CCN(C(=O)c2cccs2)CC1 [Example 171, 5-Chloro-1-(6-fluoro-3-(4-(thiophene-2-carbonyl)piperazine-1-carbonyl)benzyl)quinazoline-2,4(1H,3H)-dione] | 23 | 70 | – | –
19 | O=C(c1cccc(Cn2c(=O)[nH]c(=O)c3c(Cl)cccc32)c1)N1CCN(C(=O)C2CCCCC2)CC1 [Example 102, 5-Chloro-1-(3-(4-(cyclohexylcarbonyl)piperazine-1-carbonyl)benzyl)quinazoline-2,4(1H,3H)-dione] | 26 | 87 | – | –
20 | O=C(c1cc(Cn2c(=O)[nH]c(=O)c3c(F)cccc32)ccc1F)N1CCN(c2ccccc2)CC1 [Example 213, 5-Fluoro-1-(4-fluoro-3-(4-phenylpiperazine-1-carbonyl)benzyl)quinazoline-2,4(1H,3H)-dione] | 590 | 58 | – | –
21 | O=C(c1ccco1)N1CCN(C(=O)c2cc(Cn3c(=O)[nH]c(=O)c4ccccc43)ccc2F)CC1 [Example 47, 1-(4-Fluoro-3-(4-(furan-2-carbonyl)piperazine-1-carbonyl)benzyl)quinazoline-2,4(1H,3H)-dione] | 2.6 | 54 | – | –
22 | O=C(c1cccc(Cn2c(=O)[nH]c(=O)c3cc(Br)ccc32)c1)N1CCN(C(=O)C2CCCCC2)CC1 [Example 86, 6-Bromo-1-(3-(4-(cyclohexylcarbonyl)piperazine-1-carbonyl)benzyl)quinazoline-2,4(1H,3H)-dione] | 27 | 86 | – | –
23 | O=C(c1ccc(Cn2c(=O)[nH]c(=O)c3ccccc32)cc1)N1CCN(C(=O)C2CCCC2)CC1 [Example 99, 1-(4-(4-(Cyclopentylcarbonyl)piperazine-1-carbonyl)benzyl)quinazoline-2,4(1H,3H)-dione] | > 10000 | > 10000 | – | –
